Where two headings read alike, the source gives them in different places.
How the values were obtained:
[1] = format: physicochemical; set-up: key to Fibril / Fibril Formation / TEM 2cat / Fibril: 1 = fibrils present; 0 non-fibrillar structures
[2] = format: physicochemical
In short: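 Fibrils (1 mg/mL solution) were mixed with 50 µM ThT in PBS for 15 min at RT, and fluorescence was read at λex 440/λem 488 nm against a PBS blank, as a triplicate mean ± SD. Zeta potential came from electrophoretic mobility (Smoluchowski) after 1 d aggregation at 1 mg/mL in PBS pH 7.4, diluted into 1 mM KCl.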

[3] = ThT fluorescence relative to blank (42.1851851851852 a.u.)
[4] = relative to blank 42.1851851851852 a.u.
[5] = ThT fluorescence relative to blank, blank = 42.1851851851852

Substance | TEM: 1= fibrils, 0= aggregates (micelle), 0.5 = aggregates and fibrils, -1 = nothing obersved, STD prep [1] | Tht rel to blank (42.1851851851852) [2, 3] | Tht category (> 1.5 to blank = +) ([2]; category 1/0) | Tht rel to blank (42.1851851851852) [2, 4] | further results
CEFEFQFNMWQ [TM140] | 1 | 6.057 | 1 (ThT. Cat is 1, if Rel. ThT >2) | 6.057 | 
CEIEIQI [AR2/ TM142] | 1 | 2.23 | 1 (ThT. Cat is 1, if Rel. ThT >2) | 2.23 | 
CEIEIQINM [TM144] | 1 | 5.13 | 1 (ThT. Cat is 1, if Rel. ThT >2) | 5.13 | 
CEIEIQINMWQ [TM143] | 0.5 | 3.705 | 1 (ThT. Cat is 1, if Rel. ThT >2) | 3.705 | 
CHLHLQL [CN9] | 0.5 |  | 1 (ThT. Cat is 1, if Rel. ThT >2) | 3.241 | 
CKAKAQA [TM155] | 0.5 | 1.227 | 0 (ThT-inactive (N-Fold <2)) | 1.227 | 
CKAKAQANM [BL9] | 0.5 | 1.249 | 0 (ThT-inactive (N-Fold <2)) | 1.249 | 
CKAKAQANMWQ [BL8] | 0.5 | 1.86 | 0 (ThT-inactive (N-Fold <2)) | 1.86 | 
CKFKFQF [BL4] | 1 | 2.251 | 1 (ThT. Cat is 1, if Rel. ThT >2) | 2.251 | 
CKFKFQFNM [BL3] | 1 | 2.383 | 1 (ThT. Cat is 1, if Rel. ThT >2) | 2.383 | 
CKFKFQFNMW [KB14] | 1 |  | 1 (ThT. Cat is 1, if Rel. ThT >2) | 6.314 | 
CKFKFQFNMWQ [BL2] | 1 | 2.427 | 1 (ThT. Cat is 1, if Rel. ThT >2) | 2.427 | 
CKFKFQFW [TM72] |  | 1.802 |  |  | 
CKFKQFF [CK15] | 0.5 | 1.34 | 0 (ThT-inactive (N-Fold <2)) | 1.34 | Tht rel to blank (42.1851851851852) [2, 5]: 1.34
CKFKQFFNM [CK14] | 1 | 45.97 | 1 (ThT. Cat is 1, if Rel. ThT >2) | 45.97 | Tht rel to blank (42.1851851851852) [2, 5]: 45.97
CKFKQFFNMWQ [CK13] | 1 | 27.7 | 1 (ThT. Cat is 1, if Rel. ThT >2) | 27.7 | Tht rel to blank (42.1851851851852) [2, 5]: 27.7
CKIKIQI [MG3b] | 1 | 3.939 | 1 (ThT. Cat is 1, if Rel. ThT >2) | 3.939 | TEM: 1= fibrils, 0= aggregates (micelle), 0.5 = aggregates and fibrils, -1 = nothing obersved, STD prep ([1]; FigS26): 1
CKIKIQINM [MG2] | 1 | 2.648 | 1 (ThT. Cat is 1, if Rel. ThT >2) | 2.648 | 
CKIKIQINMW [TM86] | 1 | 1.353 | 0 (ThT-inactive (N-Fold <2)) | 1.353 | 
CKIKIQINMWQ |  |  |  |  | TEM 2cat ([1]; Fig S10 panel D, fibril category by TEM): 1; Fibril ([1]; Fig S10 panel E): 1; Fibril / Fibril Formation ([1]; TEM, 1 mg/mL, uranyl acetate stain, qualitative): 1; Fibril ([1]; TEM, 1 = fibrils present, 0 = non-fibrillar): 1; Fibril ([1]; TEM, 1 = fibrils present, 0 = non-fibrillar structures): 1; TEM 2cat ([1]; category: fibrils present or non-fibrillar): 1; Tht category (> 2 to blank = +) ([2]; Fig S10 panel D): 1 (ThT. Cat is 1, if Rel. ThT >2); ThT Cat. ([2]; Fig S10 panel E): 1 (ThT. Cat is 1, if Rel. ThT >2); ThT Cat, ([2]; ThT category, 1 if Rel. ThT >2): 1 (ThT. Cat is 1, if Rel. ThT >2); ThT Cat. ([2]; ThT fluorescence category, 1 if Rel. ThT >2): 1 (ThT. Cat is 1, if Rel. ThT >2); ThT Cat. / ThT-Fluorescence (categorical) ([2]; ThT-active if fluorescence at least twice the control): 1 (ThT. Cat is 1, if Rel. ThT >2)
CKIKIQINMWQ [MG1] | 1 | 4.566 | 1 (ThT. Cat is 1, if Rel. ThT >2) | 4.566 | 

Substance | TEM: 1= fibrils, 0= aggregates (micelle), 0.5 = aggregates and fibrils, -1 = nothing obersved, STD prep [1] | Tht rel to blank (42.1851851851852) [2, 3] | Tht category (> 1.5 to blank = +) ([2]; category 1/0) | Tht rel to blank (42.1851851851852) [2, 4] | further results
CKIKQII [MG4a] | 0.5 | 3.914 | 1 (ThT. Cat is 1, if Rel. ThT >2) | 3.914 | Tht rel to blank (42.1851851851852) [2, 5]: 3.914
CKIKQIINM [BL1] | 1 | 14.67 | 1 (ThT. Cat is 1, if Rel. ThT >2) | 14.67 | Tht rel to blank (42.1851851851852) [2, 5]: 14.67
CKIKQIINMWQ [MG5a / CK17] | 1 | 48.46 | 1 (ThT. Cat is 1, if Rel. ThT >2) | 48.46 | Tht rel to blank (42.1851851851852) [2, 5]: 48.46
CKWKWQW [KB4] | 0 |  | 0 (ThT-inactive (N-Fold <2)) | 1.321 | 
CKYKYQY [KB2] | 0 |  | 1 (ThT. Cat is 1, if Rel. ThT >2) | 3.119 | 
CQFQFQF [QBL4] | 1 |  | 1 (ThT. Cat is 1, if Rel. ThT >2) | 13.03 | 
CRFRFQF [CN10] | 1 |  | 1 (ThT. Cat is 1, if Rel. ThT >2) | 3.455 | 
CRFRVPF [CN8] | 0 |  | 0 (ThT-inactive (N-Fold <2)) | 0.9438 | 
CSISIQI [TM141] | 1 |  | 1 (ThT. Cat is 1, if Rel. ThT >2) | 15.04 | 
CSISIQINM [TM145] | 0.5 |  | 1 (ThT. Cat is 1, if Rel. ThT >2) | 5.919 | 
HHHHKIKIKIKIYYYY [TM6] | 0.5 | 9.935 | 1 (ThT. Cat is 1, if Rel. ThT >2) |  | Tht rel to blank (42.1851851851852) [2, 5]: 9.935
KAKAKAQA [TG15] | 0 | 1.151 | 0 (ThT-inactive (N-Fold <2)) |  | Tht rel to blank (42.1851851851852) [2, 5]: 1.151
KAKAQA [JJA2 / TM153] | 0 | 1.172 | 0 (ThT-inactive (N-Fold <2)) | 1.172 | 
KAKAQANM [TM152] | 0.5 | 1.082 | 0 (ThT-inactive (N-Fold <2)) | 1.082 | 
KAKAQANMWQ [JG3] | 0.5 | 0.9886 | 0 (ThT-inactive (N-Fold <2)) | 0.9886 | Tht category (> 1.5 to blank = +) ([2]; FigS26): 0 (Tht category (> 1.5 to blank = +))
KFKFKFQF [TG18] | 1 | 41.89 | 1 (ThT. Cat is 1, if Rel. ThT >2) |  | Tht rel to blank (42.1851851851852) [2, 5]: 41.89
KFKFQF [JJA6] | 0.5 | 1.156 | 0 (ThT-inactive (N-Fold <2)) | 1.156 | 
KIKIKIKIYYYY [JR7] |  | 1.259 |  |  | 
KIKIKIQINMWQ [VH9] |  | 1.586 |  |  | 
RGDSKIKIQIC [TM113 / RC11] |  | 13.8 |  |  | 

Reference: publication PMC10447463, “Data-mining unveils structure–property–activity correlation of viral infectivity enhancing self-assembling peptides” (Nature Communications, 2023)
